Where two headings read alike, the source gives them in different places.
What was measured:
[1] = tested on: cAMP response element luciferase activity in human U937 monocytic cells; test: Potentiation of forskolin-induced CRE-luciferase activity in U937 cells; assay type: cell-based; conditions: U-937, U937 cells co-incubated with 10 μM forskolin, 4 hours, X marks this range
Outline: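 U937 cells electroporated with PCRE-luc reporter, recovered 16-18 h, then exposed to compound or vehicle with or without 10 μM forskolin for 4 h at 37 °C. Cell lysates read for luciferase luminescence.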

[2] = molecular target: T1, cAMP phosphodiesterase 3 from human platelets (Homo sapiens, UniProt Q14432); test: Inhibition of cAMP phosphodiesterase 3 from human platelets; assay type: biochemical; conditions: for inhibition at 100 µM: PDE3
T1 construct: from tissue; host or cells: human platelets, cytoplasmic extract
Outline: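 Partially purified human platelet extract used as PDE3 source with cAMP as substrate, so cGMP-preferring PDE2 and PDE5 present in platelets go undetected. IBMX served as positive control.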

[3] = tested on: IL-2 production in concanavalin A stimulated primary human CD4+ T-cells; test: IL-2 production (Th1 profile) in concanavalin A stimulated primary human CD4+ T-cells; assay type: cell-based; conditions: for IC50: Homo sapiens, T-cell, 10 μg/mL Concanavalin A, 48 hours, X marks this range; for Th1 versus Th2 cytokine profile: conA stimulated CD4+ selected cells
Description: (§1) The assay on the primary human T-cells involves their activation by concanavalin A (conA); (Sigma, Catalogue No. C 5275), followed by ELISA detection for cytokines for either profile. In the case of Th1-profiles, IL-2 and INF-γ are used as benchmarks while IL-10 is the indicator for a Th2-profile. Biologically, these indicators are useful in that IL-2 is the major T-cell mitogen while IL-10 represents a powerful yet selective immunosuppressive agent.
(§2) Approximately 60 cc of whole human blood was collected into ACD anti-coagulant vacutainer tubes. 15 mL Ficoll Paque 1077 was aliquoted into 6 sterile 50 mL conical tubes. 10 mL of blood was slowly layered on top of the Ficoll Paque by holding the tube upright and resting the pipette tip at the inside edge of the tube and allowing the blood to slowly run down the side of the tube. Tubes were spun at 1700 rpm for 30 minutes at room temperature. The plasma layer above the leukocyte band was aspirated off and a pasteur pipette was used to lift off the leukocyte band and transfer it to a sterile 50 mL conical tube. Cells from each leukocyte gradiant tube were transferred to a separate 50 mL conical tube. Sterile PBS pH 7.4 was added to each 50 mL conical tube containing cells from leukocyte band to a volume of 50 mL. Tubes were spun at 1100 rpm for 10 minutes. Supernatant was aspirated off and the cells were resuspended in 50 mL PBS pH 7.4. Tubes were re-centrifuged at 1100 rpm for 10 minutes. Supernatant was aspirated off and the cells were resuspended in appropriate medium at a density of 5×10^7 cells/mL or 2×10^6 cells/mL.
(§3) CD 4+T-cell Preparation: Cells from Leukocyte preparation were resuspended in sterile PBS pH 7.4 supplemented with 2-6% Fetal Bovine Serum (FBS) at a density of 5×10^7 cells/mL. Cells were then ready for isolation.
(§4) 100 μL of antibody cocktail (Stem Cell Technologies, Catalogue No. 14062) was added for each mL of cells and mixed well. Cells+Ab cocktail was incubated on ice for 30 minutes. After 30 minute incubation, 60 μL of magnetic colloid was added for each mL of cells, and mixed well. Cells+Ab cocktail+magnetic colloid were incubated on ice for 30 minutes. After a final 30 minute incubation cells were ready for magnetic cell separation.
(§5) Sample was loaded into the top of a column. The stopcock was turned to allow the flow of media down through the column, and the media was collected into a collection tube. PBS supplemented with 2-6% FBS was added to the column until three column volumes had been collected (not including the volume of the start sample). Cells were washed, counted, and resuspended in RPMI 1640 with 10% FBS+2 mM L-glutamine at a density of 1×10^6 cells/mL.
(§6) CD4+ T-cells were isolated as described above. Cells were suspended in RPMI 1640 media (Stem Cell Technologies Inc.; Catalogue No. 36750) with 10% FBS+2 mM L-glutamine at a density of 1×10^6 cells/mL. Cells were maintained on ice as test compounds were prepared. Test compounds were prepared in a sterile 96-well assay plate at 50×the final desired test concentration, all wells contained an equal amount of dimethylsulfoxide vehicle. 500 μL of CD4^+ T-cells were added to each well of 24-well assay plate. 10 μL of each test compound working solution was added to the appropriate wells; two wells were left as stimulated and non-stimulated controls. 10 μL of concanavalin A (50×the final concentration) at 10 μg/mL was added to each well with the exception of the non-stimulated control wells. Cells were incubated at 37° C. for 48 hours. Conditioned media is then assessed by ELISA for the quantity of IL-2, […], TNFα and IL-10 present.
(§7) Tables 5A, 5B and 5C represent a synopsis of data across individuals with respects to the potency of compounds of the invention in their ability to inhibit cytokines that are likely to promote or depress a Th1 or Th2 response. […]

[4] = tested on: IL-10 production in concanavalin A stimulated primary human CD4+ T-cells; test: IL-10 production (Th2 profile) in concanavalin A stimulated primary human CD4+ T-cells; assay type: cell-based; conditions: T-cell, 10 μg/mL Concanavalin A, 48 hours, X marks this range
Description: as §1, §2, §3, §4, §5, §6, §7

[5] = read-out: IL-2 IC50 RANGE (μM) 0.02-0.2
[6] = PDE3, platelet cell extract, X marks this range, read-out: IC50 range (μM) 10-100
[7] = read-out: IL-10 IC50 RANGE (μM) 2.0-20
[8] = read-out: EC50 range (μM) 0.1-1
[9] = read-out: IL-2 IC50 RANGE (μM) 0.2-2.0
[10] = PDE3, platelet cell extract, X marks this range, read-out: IC50 range (μM) 1-10
[11] = read-out: IL-10 IC50 RANGE (μM) 0.2-2.0
[12] = read-out: IL-10 IC50 RANGE (μM) 0.02-0.2

T1 sequence (Q14432 whole entry): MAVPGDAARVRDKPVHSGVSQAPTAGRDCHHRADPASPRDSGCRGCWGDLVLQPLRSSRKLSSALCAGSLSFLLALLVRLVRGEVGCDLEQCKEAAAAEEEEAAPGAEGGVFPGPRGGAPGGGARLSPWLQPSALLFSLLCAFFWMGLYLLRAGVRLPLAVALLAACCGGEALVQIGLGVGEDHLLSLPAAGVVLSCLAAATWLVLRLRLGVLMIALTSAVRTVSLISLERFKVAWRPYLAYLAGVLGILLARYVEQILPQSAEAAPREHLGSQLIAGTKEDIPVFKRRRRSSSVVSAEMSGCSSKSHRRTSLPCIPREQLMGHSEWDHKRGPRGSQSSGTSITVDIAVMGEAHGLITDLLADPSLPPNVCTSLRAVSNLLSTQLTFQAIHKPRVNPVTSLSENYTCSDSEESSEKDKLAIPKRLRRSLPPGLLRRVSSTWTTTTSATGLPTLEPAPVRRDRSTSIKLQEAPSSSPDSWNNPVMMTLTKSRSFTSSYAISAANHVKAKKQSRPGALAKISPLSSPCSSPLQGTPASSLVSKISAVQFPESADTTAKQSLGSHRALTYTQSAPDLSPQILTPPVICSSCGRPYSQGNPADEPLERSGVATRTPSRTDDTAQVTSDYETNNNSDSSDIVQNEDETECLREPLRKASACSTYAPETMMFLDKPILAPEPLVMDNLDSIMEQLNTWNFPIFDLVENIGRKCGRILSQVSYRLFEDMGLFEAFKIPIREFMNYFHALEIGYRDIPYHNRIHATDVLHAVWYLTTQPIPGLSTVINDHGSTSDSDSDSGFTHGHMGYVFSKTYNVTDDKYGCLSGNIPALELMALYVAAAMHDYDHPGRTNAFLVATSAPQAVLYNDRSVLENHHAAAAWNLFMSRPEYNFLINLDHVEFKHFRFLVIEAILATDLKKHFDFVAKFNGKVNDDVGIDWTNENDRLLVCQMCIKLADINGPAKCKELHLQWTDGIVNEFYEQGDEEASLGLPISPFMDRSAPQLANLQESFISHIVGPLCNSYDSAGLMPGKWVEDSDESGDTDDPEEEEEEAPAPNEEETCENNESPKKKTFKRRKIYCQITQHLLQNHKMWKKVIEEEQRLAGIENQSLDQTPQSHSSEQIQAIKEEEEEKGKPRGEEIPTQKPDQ

With `COc1cc(C[C@@H]2CC(c3ccc(OC)c(OC)c3)COC2=O)ccc1O` (mixture of isomers) [Compound 12] the EC50 ([1]; read-out: EC50 range (μM) 1-25) was 1 to 25 µM, the IC50 ([2]; human platelets, read-out: IC50 PDE 3) was 45 µM and the inhibition at 100 µM ([2]; read-out: % inhibition by 100 μM test compound 50-75, X marks this range) was 50 to 75%.

`COc1cc(C[C@@H]2C[C@@H](c3ccc(OC)c(OC)c3)COC2=O)ccc1O` [Compound 30] was tested, and the IC50 [3, 5] was 0.02 to 0.2 µM, the “Th1 versus Th2 cytokine profile” value [3] was “selective inhibition of a Th1 profile” and the EC50 ([1]; read-out: EC50 range (μM) 1-25) was 1 to 25 µM. For the same compound, the IC50 [2, 6] was 10 to 100 µM and the IC50 [4, 7] was 2 to 20 µM.

With `COc1ccc([C@@H]2CCC(=O)OC2)cc1OC1CCCC1` [Compound 41] the EC50 [1, 8] was 0.1 to 1 µM, the IC50 ([2]; PDE3, platelet cell extract, X marks this range) was > 100 µM and the inhibition at 100 µM ([2]; read-out: % inhibition by 100 μM test compound 25-50, X marks this range) was 25 to 50%.

Work on `COc1cc(CC2C[C@@H](c3ccc(OC)c(OC4CCCC4)c3)COC2=O)ccc1O` (some centres unmarked) [Compound 43] yielded an IC50 [3, 9] of 0.2 to 2 µM, an EC50 [1, 8] of 0.1 to 1 µM and an IC50 [2, 6] of 10 to 100 µM. For the same compound, the inhibition at 100 µM ([2]; read-out: % inhibition by 100 μM test compound 75-100, X marks this range) was 75 to 100% and the IC50 [4, 7] was 2 to 20 µM.

`COc1ccc([C@H]2CNC(=O)C(Cc3ccc(OCc4ccccc4)c(OC)c3)C2)cc1OC` (some centres unmarked) [Compound 54] was tested, and the IC50 [3, 5] was 0.02 to 0.2 µM, the “Th1 versus Th2 cytokine profile” value [3] was “selective inhibition of a Th1 profile” and the EC50 ([1]; read-out: EC50 range (μM) 1-25) was 1 to 25 µM. It also gave an IC50 [2, 10] of 1 to 10 µM and an IC50 [4, 11] of 0.2 to 2 µM.

Compound `COc1cc(CC2C[C@@H](c3ccc(OC)c(OC)c3)CNC2=O)ccc1O` (some centres unmarked) [Compound 55] has an IC50 [3, 9] of 0.2 to 2 µM, an EC50 ([1]; read-out: EC50 range (μM) 1-25) of 1 to 25 µM and an IC50 [2, 10] of 1 to 10 µM. For the same compound, the IC50 [4, 11] was 0.2 to 2 µM.

In the case of `COc1cc(CC2C[C@@H](c3ccc(OC)c(OC4CCCC4)c3)CNC2=O)ccc1O` (some centres unmarked) [Compound 62], the IC50 [3, 9] is reported as 0.2 to 2 µM, the EC50 ([1]; read-out: EC50 range (μM) 1-25) is reported as 1 to 25 µM and the IC50 [2, 10] is reported as 1 to 10 µM. The IC50 [4, 12] was 0.02 to 0.2 µM.

`COc1ccc(C2CNC(=O)C2)cc1OC1CCCC1` (centres unmarked) [Rolipram, reference compound] was tested, and the IC50 ([3]; read-out: IL-2 IC50 RANGE (μM) 2.0-20) was 2 to 20 µM, the “effect in PDE3 assay” value ([2]; platelet cell extract, cAMP as substrate) was “without effect” and the IC50 [4, 12] was 0.02 to 0.2 µM.
